Assay in all cases: MTT cell proliferation assay
Format in all cases: cell-based

Assay [1] deals with 3T3 cells. Particulars: Mus musculus, NIH3T3, approximately 64-72 hours incubation. In outline:
(§1)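 5,000-10,000 cells/well, overnight attach; 8 conc., 1 nM–30 μM; MTT ~4 h; formazan solubilized, OD 490 nm; % inhibition = (1−(ODo/OD))×100 vs neg. control; mostly duplicate, mean±SE.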

The subject of assay [2] is MS751 cells. Particulars: Homo sapiens, approximately 64-72 hours incubation. The method in brief: as §1
In assay [3] the test system is Z138 cells. Particulars: Homo sapiens, Z-138, Z138 cells, approximately 64-72 hours incubation. The method in brief: as §1
[4] abbreviates: MS751, MS751 cells, read-out: MTT Assay IC50, MS-751.
Where [5] appears, read: read-out: MTT Assay IC50, Z-138.
[6] abbreviates: MS751, MS751 cells, read-out: MTT Assay IC50 MS-751.

SMILES strings stand for the structures. Where two headings read alike, the source gives them in different places.

In patent US12331040B2 (Karyopharm Therapeutics Inc., priority 2013, dated 2025) one finds IC50 data, which are given here for 21 molecules.

For the molecule `Nc1ccc(/C=C/C(=O)NCc2cc3cc(-c4ccc(C(=O)N5CCC(F)(F)CC5)cc4F)cc(-c4ccc(F)c(Cl)c4)c3o2)cn1` [Compound 757, (E)-3-(6-aminopyridin-3-yl)-N-((7-(3-chloro-4-fluorophenyl)-5-(4-(4,4-difluoropiperidine-1-carbonyl)-2-fluorophenyl)benzofuran-2-yl)methyl)acrylamide], the IC50 in assay [1] (read-out: MTT Assay IC50, 3T3) was > 10000 nM; in assay [2] (setting [4]) it was < 100 nM; in assay [3] (setting [5]), < 100 nM.
Consider `Nc1ccc(/C=C/C(=O)NCc2cc3cc(-c4ccc(C(F)(F)F)cc4)cc(-c4ccc(F)cc4)c3o2)cn1` [Compound 692, (E)-3-(6-aminopyridin-3-yl)-N-((7-(4-fluorophenyl)-5-(4-(trifluoromethyl)phenyl)benzofuran-2-yl)methyl)acrylamide], for which the IC50 in assay [1] (read-out: MTT Assay IC50, 3T3) was > 10000 nM; in assay [2] (setting [4]) it was 100 to 5000 nM; in assay [3] (setting [5]) it was 100 to 5000 nM.
`Nc1ccc(/C=C/C(=O)NCc2cc3cc(-c4ccc(C(=O)N5CCC(F)(F)CC5)cc4)cc(C(F)(F)F)c3o2)cn1` [Compound 566, (E)-3-(6-aminopyridin-3-yl)-N-((5-(4-(4,4-difluoropiperidine-1-carbonyl)phenyl)-7-(trifluoromethyl)benzofuran-2-yl)methyl)acrylamide]: the IC50 in assay [1] (read-out: MTT Assay IC50 3T3) is > 10000 nM; in assay [2] (setting [6]), 100 to 5000 nM; in assay [3] (read-out: MTT Assay IC50 Z-138), 100 to 5000 nM.
As to `Nc1ccc(/C=C/C(=O)NCc2cc3cc(-c4cc(F)c(C(=O)N5CCOCC5)cc4F)cc(Cl)c3o2)cn1` [Compound 547, (E)-3-(6-aminopyridin-3-yl)-N-((7-chloro-5-(2,5-difluoro-4-(morpholine-4-carbonyl)phenyl)benzofuran-2-yl)methyl)acrylamide], the figures for the half-maximal inhibitory concentration (IC50) in assay [1] (read-out: MTT Assay IC50 3T3), in assay [2] (setting [6]) and in assay [3] (read-out: MTT Assay IC50 Z-138) were > 10000 nM, 100 to 5000 nM and 100 to 5000 nM, respectively.
Take `O=C(/C=C/c1ccccn1)NCc1cc2cc(-c3ccc(C(=O)N4CCOCC4)cc3)cc(Cl)c2o1` [Compound 539, (E)-N-((7-chloro-5-(4-(morpholine-4-carbonyl)phenyl)benzofuran-2-yl)methyl)-3-(pyridin-2-yl)acrylamide]: the IC50 was > 10000 nM in assay [1] (read-out: MTT Assay IC50 3T3), 100 to 5000 nM in assay [2] (setting [6]) and 100 to 5000 nM in assay [3] (read-out: MTT Assay IC50 Z-138).
Consider `Nc1ccc(/C=C/C(=O)NCc2cc3cc(-c4ccc(C(=O)N5CCC(F)(F)CC5)cc4)cc(-c4cc(F)ccc4F)c3o2)cn1` [Compound 740, (E)-3-(6-aminopyridin-3-yl)-N-((7-(2,5-difluorophenyl)-5-(4-(4,4-difluoropiperidine-1-carbonyl)phenyl)benzofuran-2-yl)methyl)acrylamide], for which the IC50 is 100 to 5000 nM in assay [1] (read-out: MTT Assay IC50, 3T3); < 100 nM in assay [2] (setting [4]); < 100 nM in assay [3] (setting [5]).
Consider `COc1cc(-c2ccc(S(=O)(=O)N3CCOCC3)cc2)cc2cc(CNC(=O)/C=C/c3ccc(N)nc3)oc12` [Compound 635, (E)-3-(6-aminopyridin-3-yl)-N-((7-methoxy-5-(4-(morpholinosulfonyl)phenyl)benzofuran-2-yl)methyl)acrylamide], for which the IC50 in assay [1] (read-out: MTT Assay IC50 3T3) was 100 to 5000 nM; in assay [2] (setting [6]), < 100 nM; in assay [3] (read-out: MTT Assay IC50 Z-138), < 100 nM.
Turning to `CC1(O)CCN(C(=O)c2ccc(-c3cc(C(F)(F)F)c4oc(CNC(=O)/C=C/c5ccc(N)nc5)cc4c3)nc2)C1` (stereo not drawn) [Compound 627, (E)-3-(6-aminopyridin-3-yl)-N-((5-(5-(3-hydroxy-3-methylpyrrolidine-1-carbonyl)pyridin-2-yl)-7-(trifluoromethyl)benzofuran-2-yl)methyl)acrylamide], the concentration for half-maximal inhibition (IC50) was > 10000 nM in assay [1] (read-out: MTT Assay IC50 3T3), < 100 nM in assay [2] (setting [6]) and < 100 nM in assay [3] (read-out: MTT Assay IC50 Z-138).
For `Nc1ccc(/C=C/C(=O)NCc2cc3cc(-c4ccc(C(=O)NNc5ccccn5)cc4)cc(C(F)(F)F)c3o2)cn1` [Compound 518, (E)-3-(6-aminopyridin-3-yl)-N-((5-(4-(2-(pyridin-2-yl)hydrazinecarbonyl)phenyl)-7-(trifluoromethyl)benzofuran-2-yl)methyl)acrylamide], the IC50 was > 10000 nM in assay [1] (read-out: MTT Assay IC50 3T3); 100 to 5000 nM in assay [2] (MS751 cells, read-out: MTT Assay IC50 MS-751); 100 to 5000 nM in assay [3] (read-out: MTT Assay IC50 Z-138).
On to `CC1(C)CN(C(=O)c2ccc(-c3cc(C(F)(F)F)c4oc(CNC(=O)/C=C/c5ccc(N)nc5)cc4c3)cc2)CCO1` [Compound 530, (E)-3-(6-aminopyridin-3-yl)-N-((5-(4-(2,2-dimethylmorpholine-4-carbonyl)phenyl)-7-(trifluoromethyl)benzofuran-2-yl)methyl)acrylamide], for which the IC50 in assay [1] (read-out: MTT Assay IC50 3T3) was > 10000 nM; in assay [2] (setting [6]), 100 to 5000 nM; in assay [3] (read-out: MTT Assay IC50 Z-138) it was 100 to 5000 nM.
For the molecule `CC1(O)CCN(C(=O)c2ccc(-c3cc(Cl)c4oc(CNC(=O)/C=C/c5ccc(N)nc5)cc4c3)cc2)CC1` [Compound 602, (E)-3-(6-aminopyridin-3-yl)-N-((7-chloro-5-(4-(4-hydroxy-4-methylpiperidine-1-carbonyl)phenyl)benzofuran-2-yl)methyl)acrylamide], the IC50 in assay [1] (read-out: MTT Assay IC50 3T3) is > 10000 nM; in assay [2] (setting [6]) it was 100 to 5000 nM; in assay [3] (read-out: MTT Assay IC50 Z-138), 100 to 5000 nM.
`CC1(C)C2CN(C(=O)c3ccc(-c4cc(C(F)(F)F)c5oc(CNC(=O)/C=C/c6ccc(N)nc6)cc5c4)nc3)CC21` (stereo not drawn) [Compound 631, (E)-3-(6-aminopyridin-3-yl)-N-((5-(5-(6,6-dimethyl-3-azabicyclo[3.1.0]hexane-3-carbonyl)pyridin-2-yl)-7-(trifluoromethyl)benzofuran-2-yl)methyl)acrylamide]: the IC50 in assay [1] (read-out: MTT Assay IC50 3T3) was > 10000 nM; in assay [2] (setting [6]), 100 to 5000 nM; in assay [3] (read-out: MTT Assay IC50 Z-138), 100 to 5000 nM.
For the molecule `O=C(/C=C/c1cccnc1)NCc1cc2cc(-c3ccc(C(=O)N4CCC(F)(F)CC4)cn3)cc(-c3cccc(F)c3)c2o1` [Compound 720, (E)-N-((5-(5-(4,4-difluoropiperidine-1-carbonyl)pyridin-2-yl)-7-(3-fluorophenyl)benzofuran-2-yl)methyl)-3-(pyridin-3-yl)acrylamide], the half-maximal inhibitory concentration (IC50) in assay [1] (read-out: MTT Assay IC50, 3T3) is < 100 nM; in assay [2] (setting [4]), < 100 nM; in assay [3] (setting [5]), < 100 nM.
As for `O=C(/C=C/c1ccncc1)NCc1cc2cc(-c3ccc(C(=O)N4CCOCC4)cc3)cc(Cl)c2o1` [Compound 535, (E)-N-((7-Chloro-5-(4-(morpholine-4-carbonyl)phenyl)benzofuran-2-yl)methyl)-3-(pyridin-4-yl)acrylamide], the concentration for half-maximal inhibition (IC50) in assay [1] (read-out: MTT Assay IC50 3T3), in assay [2] (setting [6]) and in assay [3] (read-out: MTT Assay IC50 Z-138) was > 10000 nM each time.
Turning to `Nc1ccc(/C=C/C(=O)NCc2cc3cc(-c4ccc(Oc5ccc(F)nc5)cc4)cc(-c4ccc(F)cc4)c3o2)cn1` [Compound 767, (E)-3-(6-aminopyridin-3-yl)-N-((7-(4-fluorophenyl)-5-(4-((6-fluoropyridin-3-yl)oxy)phenyl)benzofuran-2-yl)methyl)acrylamide], the IC50 in assay [1] (read-out: MTT Assay IC50, 3T3) is > 10000 nM; in assay [2] (setting [4]), 100 to 5000 nM; in assay [3] (setting [5]), < 100 nM.
As for `Nc1ccc(/C=C/C(=O)NCc2cc3cc(-c4ccc(C(=O)N5CCNCC5)cc4)cc(Cl)c3o2)cn1` [Compound 601], the values for the IC50 in assay [1] (read-out: MTT Assay IC50 3T3), in assay [2] (setting [6]) and in assay [3] (read-out: MTT Assay IC50 Z-138) were > 10000 nM, 100 to 5000 nM and 100 to 5000 nM, respectively.
With `Nc1ccc(/C=C/C(=O)NCc2cc3cc(-c4ccc(C(=O)N5CCC(F)(F)C5)cc4)cc(C(F)(F)F)c3o2)cn1` [Compound 603, (E)-3-(6-aminopyridin-3-yl)-N-((5-(4-(3,3-difluoropyrrolidine-1-carbonyl)phenyl)-7-(trifluoromethyl)benzofuran-2-yl)methyl)acrylamide], the IC50 is > 10000 nM in assay [1] (read-out: MTT Assay IC50 3T3), 100 to 5000 nM in assay [2] (setting [6]) and 100 to 5000 nM in assay [3] (read-out: MTT Assay IC50 Z-138).
Take `Nc1ccc(/C=C/C(=O)NCc2cc3cc(-c4ccc(C(=O)N5CCC(F)(F)CC5)cc4F)cc(-c4ccc(F)cc4)c3o2)cn1` [Compound 751, (E)-3-(6-aminopyridin-3-yl)-N-((5-(4-(4,4-difluoropiperidine-1-carbonyl)-2-fluorophenyl)-7-(4-fluorophenyl)benzofuran-2-yl)methyl)acrylamide]: the IC50 was 100 to 5000 nM in assay [1] (read-out: MTT Assay IC50, 3T3); < 100 nM in assay [2] (setting [4]); < 100 nM in assay [3] (setting [5]).
For `Nc1ccc(/C=C/C(=O)NCc2cc3cc(-c4ccc(C(=O)N5CCC(F)(F)CC5)cn4)cc(-c4ccc(F)cc4)c3o2)cn1` [Compound 665, (E)-3-(6-aminopyridin-3-yl)-N-((5-(5-(4,4-difluoropiperidine-1-carbonyl)pyridin-2-yl)-7-(4-fluorophenyl)benzofuran-2-yl)methyl)acrylamide], the IC50 in assay [1] (read-out: MTT Assay IC50, 3T3) is 100 to 5000 nM; in assay [2] (setting [4]) it was < 100 nM; in assay [3] (setting [5]), < 100 nM.
As for `Nc1ccc(/C=C/C(=O)NCCc2cc3cc(-c4ccc(C(=O)N5CCC(F)(F)CC5)cn4)cc(C(F)(F)F)c3o2)cn1` [Compound 690, (E)-3-(6-aminopyridin-3-yl)-N-(2-(5-(5-(4,4-difluoropiperidine-1-carbonyl)pyridin-2-yl)-7-(trifluoromethyl)benzofuran-2-yl)ethyl)acrylamide], the half-maximal inhibitory concentration (IC50) in assay [1] (read-out: MTT Assay IC50, 3T3) was 100 to 5000 nM; in assay [2] (setting [4]), < 100 nM; in assay [3] (setting [5]) it was < 100 nM.
`CC(C)(O)c1ccc(-c2cc(Cl)c3oc(CNC(=O)/C=C/c4ccc(N)nc4)cc3c2)s1` [Compound 650, (E)-3-(6-aminopyridin-3-yl)-N-((7-chloro-5-(5-(2-hydroxypropan-2-yl)thiophen-2-yl)benzofuran-2-yl)methyl)acrylamide]: the IC50 in assay [1] (read-out: MTT Assay IC50 3T3) is > 10000 nM; in assay [2] (setting [6]) it was 100 to 5000 nM; in assay [3] (read-out: MTT Assay IC50 Z-138) it was 100 to 5000 nM.
